≈ marks a conversion by molar mass, not a printed value.
What was measured:
PC-12 = assay: Cytotoxicity against rat PC12 cells assessed as growth inhibition after 72 hrs by MTT assay; format: functional; conditions: PC-12, 72 h
HCT-116 = assay: Cytotoxicity against human HCT116 cells assessed as growth inhibition after 72 hrs by MTT assay; format: functional; conditions: HCT-116, 72 h

Row | SMILES | GI50 (PC-12) | GI50 (HCT-116)
1 | CC(=O)O[C@@H]1C[C@@H](C)[C@]2(CCC(=O)O2)[C@@]2(C)CCCC(C)(C)[C@H]12 | > 5 µg/mL | > 5 µg/mL
2 | COc1ccc([C@@H]2CC(=O)c3c(cc(OC)c(OC)c3O)O2)cc1O | 2.27 µg/mL (≈ 6.55 µM) | 2.87 µg/mL (≈ 8.29 µM)
3 | CO[C@H]1C[C@@]2(CC[C@@]3(O2)[C@H](C)C[C@@H](OC(C)=O)[C@H]2C(C)(C)CCC[C@@]23C)[C@H](OC)O1 (relative stereo) | > 5 µg/mL | > 5 µg/mL
4 | COc1ccc(-c2oc3cc(OC)c(OC)c(O)c3c(=O)c2OC)cc1OC [ARTEMETIN] | 2.27 µg/mL (≈ 5.84 µM) | 2.2 µg/mL (≈ 5.66 µM)
5 | COc1ccc(-c2oc3cc(OC)c(OC)c(O)c3c(=O)c2OC)cc1O [CASTICIN] | 0.114 µg/mL (≈ 0.305 µM) | 0.119 µg/mL (≈ 0.318 µM)
6 | CC(=O)O[C@@H]1C[C@@H](C)[C@](O)(CCC2=CC(=O)OC2)[C@@]2(C)CCCC(C)(C)[C@H]12 [VITEXILACTONE] | > 5 µg/mL | > 5 µg/mL

Reference: ChEMBL document CHEMBL1148123, “New diterpenes and norditerpenes from the fruits of Vitex rotundifolia” (2002)
